Positions count from the first letter of the chain named.
Assays:
wild-type GR = target: T1, wild-type GR (Homo sapiens, UniProt P04150); test: Transactivation of the MMTV promoter by wild-type GR; format: cell-based; details: 100 nM
T1 construct: expressed in transfected cells
T1 sequence (P04150 1-777): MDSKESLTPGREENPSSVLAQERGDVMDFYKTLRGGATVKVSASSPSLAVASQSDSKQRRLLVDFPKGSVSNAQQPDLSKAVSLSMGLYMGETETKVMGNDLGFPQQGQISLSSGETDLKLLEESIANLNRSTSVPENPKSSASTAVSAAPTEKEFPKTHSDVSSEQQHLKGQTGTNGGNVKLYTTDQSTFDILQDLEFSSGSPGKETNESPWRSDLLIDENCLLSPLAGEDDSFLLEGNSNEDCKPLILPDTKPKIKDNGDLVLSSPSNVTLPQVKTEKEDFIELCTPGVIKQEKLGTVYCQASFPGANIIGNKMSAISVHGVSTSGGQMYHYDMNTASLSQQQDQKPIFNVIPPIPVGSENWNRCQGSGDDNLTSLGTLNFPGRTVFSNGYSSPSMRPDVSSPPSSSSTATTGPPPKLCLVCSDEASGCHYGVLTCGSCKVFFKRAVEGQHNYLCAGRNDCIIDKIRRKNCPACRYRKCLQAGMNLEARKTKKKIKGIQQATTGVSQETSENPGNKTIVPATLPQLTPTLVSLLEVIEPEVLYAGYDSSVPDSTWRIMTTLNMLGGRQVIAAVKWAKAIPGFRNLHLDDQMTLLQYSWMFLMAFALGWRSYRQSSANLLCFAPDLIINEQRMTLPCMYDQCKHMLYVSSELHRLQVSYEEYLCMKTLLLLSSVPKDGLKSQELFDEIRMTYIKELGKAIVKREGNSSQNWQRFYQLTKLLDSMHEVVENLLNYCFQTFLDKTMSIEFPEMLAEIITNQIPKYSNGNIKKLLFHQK

GR Tyr735val = target: T2, GR Tyr735val (Homo sapiens, UniProt P04150, Y735V); test: Transactivation of the MMTV promoter by mutant GR Tyr735val; format: cell-based; details: 100 nM
T2 construct: expressed in transfected cells
T2 sequence (P04150 1-777 Y735V): T1 sequence (P04150 1-777) with Y735V

GR Tyr735ser = target: T3, GR Tyr735ser (Homo sapiens, UniProt P04150, Y735S); test: Transactivation of the MMTV promoter by mutant GR Tyr735ser; format: cell-based; details: 100 nM
T3 construct: expressed in transfected cells
T3 sequence (P04150 1-777 Y735S): T1 sequence (P04150 1-777) with Y735S

GR Tyr735phe = target: T4, GR Tyr735phe (Homo sapiens, UniProt P04150, Y735F); test: Transactivation of the MMTV promoter by mutant GR Tyr735phe; format: cell-based; details: 100 nM
T4 construct: expressed in transfected cells
T4 sequence (P04150 1-777 Y735F): T1 sequence (P04150 1-777) with Y735F

glucocorticoid receptor = target: T5, glucocorticoid receptor (Homo sapiens, UniProt P04150); design: expressed in transfected cells; host or cells: COS 7 (African green monkey kidney, deficient in endogenous GR); details: in-vitro, other investigators; cited from earlier work
T5 sequence (P04150 1-777): T1 sequence (P04150 1-777)

CEM-C7A cells = test: Apoptosis assay in CEM-C7A cells (viable cell count, MTS); format: cell-based, human
Procedure: The CEM-C7A cell line is a steroid sensitive clone of the CCRF-CEM cell line (ECACC 85112105). This is a T lymphoblastoid cell line with functional endogenous GR.
Apoptosis (programmed cell death) is mediated by a protein called Bax the transcription of which is primarily controlled by the GR in a ligand dependant manner. To measure the ability of a GR ligand to effect apoptosis a suitable cell line was incubated with ligand and a viable cell count was performed after three days.
CEM-C7A cells were plated out on to a 96well plate at 5×10^5/well. The steroids of FIGS. 1 and 2A were added immediately to generate a final concentration of 100 nM. After a three day incubation the live cell number in each well was assessed using Celltiter 96 Aqueous Non-Radioactive Cell Proliferation Assay (Promega). This assay is a calorimetric method for determining the number of viable cells in proliferation or chemosensitivity assays.
Briefly, the assay is composed of solutions of a novel tetrazolium compound (3-(4,5-dimethylthiazol-2-yl)-5-(3-carboxymethoxyphenyl)-2-(4-sulfophenyl)-2H-tetrazolium, MTS) and an electron coupling reagent (phenazine methosulfate; PMS). MTS is bioreduced by cells into a formazan product that is soluble in tissue culture medium. The absorbance of the formazan at 490 nm can be measured directly from 96 well assay plates without additional processing. The conversion of MTS into aqueous, soluble formazan is accomplished by dehydrogenase enzymes found in metabolically active cells. The quantity of formazan product as measured by the amount of 490 nm absorbance is directly proportional to the number of living cells in culture.

[1] = target: T6, progesterone receptor (PRB) (Homo sapiens, UniProt P06401); test: Progestogen activity assay using progesterone receptor transactivation; format: cell-based; details: unpublished data, conditions not given
T6 construct: expressed in transfected cells; host or cells: COS 7
T6 sequence (P06401 1-933): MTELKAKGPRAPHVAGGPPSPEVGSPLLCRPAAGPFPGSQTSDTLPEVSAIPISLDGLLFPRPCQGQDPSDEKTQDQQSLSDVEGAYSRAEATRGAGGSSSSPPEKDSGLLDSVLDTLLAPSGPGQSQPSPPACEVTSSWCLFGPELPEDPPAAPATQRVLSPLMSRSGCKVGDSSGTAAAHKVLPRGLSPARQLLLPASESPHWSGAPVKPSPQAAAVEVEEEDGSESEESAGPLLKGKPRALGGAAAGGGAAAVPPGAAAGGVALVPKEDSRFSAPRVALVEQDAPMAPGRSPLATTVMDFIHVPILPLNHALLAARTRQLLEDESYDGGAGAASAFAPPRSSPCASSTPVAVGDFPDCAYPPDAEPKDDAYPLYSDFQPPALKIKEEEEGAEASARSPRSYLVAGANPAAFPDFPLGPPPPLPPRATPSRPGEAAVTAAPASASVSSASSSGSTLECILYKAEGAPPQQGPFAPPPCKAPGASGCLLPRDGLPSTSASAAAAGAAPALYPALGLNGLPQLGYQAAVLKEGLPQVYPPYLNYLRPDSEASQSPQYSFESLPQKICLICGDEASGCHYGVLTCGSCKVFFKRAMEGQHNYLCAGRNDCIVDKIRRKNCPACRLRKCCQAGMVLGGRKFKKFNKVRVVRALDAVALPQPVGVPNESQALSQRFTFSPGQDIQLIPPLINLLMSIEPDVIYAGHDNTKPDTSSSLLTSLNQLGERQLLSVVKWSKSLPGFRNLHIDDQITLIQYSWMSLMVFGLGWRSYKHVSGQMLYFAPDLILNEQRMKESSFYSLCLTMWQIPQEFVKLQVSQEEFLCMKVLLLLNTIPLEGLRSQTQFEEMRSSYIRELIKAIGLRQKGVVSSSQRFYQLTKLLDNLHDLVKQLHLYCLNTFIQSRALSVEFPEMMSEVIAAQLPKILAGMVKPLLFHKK

[2] = cited from earlier work

## C[C@]12CCC(=O)C=C1CC[C@@H]1[C@@H]2[C@@H](O)C[C@@]2(C)[C@H]1CC[C@]2(O)C(=O)CO [hydrocortisone]
wild-type GR
  induction of MMTV: 18 fold
GR Tyr735val
  induction of MMTV: 10.6 fold
GR Tyr735ser
  induction of MMTV: failed to induce the reporter
GR Tyr735phe
  induction of MMTV: 11 fold

## C[C@@H]1C[C@H]2[C@@H]3CCC4=CC(=O)C=C[C@]4(C)[C@@]3(F)[C@@H](O)C[C@]2(C)[C@H]1C(=O)CC#N [RU24858, reference compound]
Glucocorticoid receptor
  selectivity for transrepression over transactivation: 2 fold
CEM-C7A cells; CEM C7A cells
  effect on proliferation: impaired proliferation
CEM-C7A cells; CEM C7A cells, 100 nM, three day incubation
  induction of apoptosis: did not induce significant apoptosis
CEM-C7A cells; unpublished data, conditions not given
  induction of apoptosis: does not induce apoptosis
[1]
  activation of the progesterone receptor: activating the progesterone receptor
[2]
  desired profile in-vivo: failed to show the desired profile in-vivo

Reference: patent US7763596B2, “Selective glucocorticoid receptor agonists” (The University of Manchester, priority 2000, dated 2010)
